pEC50: −log10 of the molar value.

In the first assay the test system is recombinant NL-Rluc virus. Nature of the assay: Inhibition of HIV replication (NL-RLuc virus in MT-2 cells, luciferase readout). In kind it is cell-based. To be noted: 5 days of incubation, 10% FBS, read-out: EC50.
On to “(2S)-2-(tert-Butoxy)-2-[(22S)-4,17,22,29-tetramethyl-21,28-dioxa-1,5,7,8-tetraazahexacyclo[27.2.2.1^6,^9.1^10,^14.0^2,^7.0^15,^20]pentatriaconta-2,4, 6(35), 8, 10(34), 11, 13, 15 (20),16,18-decaen-3-yl]acetic acid [Example 65]”, for which the pEC50 is 7.37.

Staying with this assay, now noted: Human immunodeficiency virus 1, MT2, 120 h, 5 days of incubation, 10% FBS.
For the compound `Cc1cc2c(cc1C)-c1cccc(c1)-c1cc3nc(C)c([C@H](OC(C)(C)C)C(=O)O)c(n3n1)N1CCC(C)(CC1)OCCCC[C@H](C)O2` [Example 76, (2S)-2-(tert-Butoxy)-2-[(22S)-4,17,18,22,28-pentamethyl-21,27-dioxa-1,5,7,8-tetraazahexacyclo[26.2.2.1^6,^9.1^10,^14.0^2,^7.0^15,^20]tetratriaconta-2,4,6(34),8,10(33),11,13,15(20),16,18-decaen-3-yl]acetic acid], the pEC50 is 7.54.
Same read-out and setting: the same measure for `Cc1cccc2c1-c1cccc(c1)-c1cc3nc(C)c([C@H](OC(C)(C)C)C(=O)O)c(n3n1)N1CCC(C)(CC1)OCCCC[C@H](C)O2` [Example 77, (2S)-2-(tert-Butoxy)-2-[(22S)-4,16,22,28-tetramethyl-21,27-dioxa-1,5,7,8-tetraazahexacyclo[26.2.2.1^6,^9.1^10,^14.0^2,^7.0^15,^20]tetratriaconta-2,4,6(34),8,10(33), 11, 13, 15(20),16,18-decaen-3-yl]acetic acid]: 7.68; for `Cc1cc2c(cc1F)O[C@@H](C)CC=CCOC1(C)CCN(CC1)c1c([C@H](OC(C)(C)C)C(=O)O)c(C)nc3cc(nn13)-c1cccc-2c1` [Example 78, (2S)-2-(tert-Butoxy)-2-[(22S)-18-fluoro-4,17,22,28-tetramethyl-21,27-dioxa-1,5,7,8-tetraazahexacyclo[26.2.2.1^6,^9.1^10,^14.0^2,^7.0^15,^20]tetratriaconta-2,4,6(34),8,10(33),11,13, 15(20), 16,18,24-undecaen-3-yl]acetic acid]: 7.51; for `Cc1cc2c(cc1F)O[C@@H](C)CCCCOC1(C)CCN(CC1)c1c([C@H](OC(C)(C)C)C(=O)O)c(C)nc3cc(nn13)-c1cccc-2c1` [Example 79, (2S)-2-(tert-Butoxy)-2-[(22S)-18-fluoro-4,17,22,28-tetramethyl-21,27-dioxa-1,5,7,8-tetraazahexacyclo[26.2.2.1^6,^9.1^10,^14.0^2,^7.0^15,^20]tetratriaconta-2,4,6(34),8,10(33),11,13,15(20),16,18-decaen-3-yl]acetic acid]: 7.42.
Still for that read-out and setting: to `Cc1nc2cc3nn2c(c1[C@H](OC(C)(C)C)C(=O)O)N1CCC(C)(CC1)OCCCC[C@H](C)Oc1ccc(F)cc1-c1cccc-3c1` [Example 81, (2S)-2-(tert-Butoxy)-2-[(22S)-17-fluoro-4,22,28-trimethyl-21,27-dioxa-1,5,7,8-tetraazahexacyclo[26.2.2.1^6,^9.1^10,^14.0^2,^7.0^15,^20]tetratriaconta-2,4,6(34),8,10(33),11,13, 15(20),16,18-decaen-3-yl]acetic acid] belongs 7.89; to `Cc1nc2cc3nn2c(c1[C@H](OC(C)(C)C)C(=O)O)N1CCC(C)(CC1)OCCCC[C@H](C)Oc1ccc(Cl)cc1-c1cccc-3c1` [Example 82, (2S)-2-(tert-Butoxy)-2-[(22S)-17-chloro-4,22,28-trimethyl-21,27-dioxa-1,5,7,8-tetraazahexacyclo[26.2.2.1^6,^9.1^10,^14.0^2,^7.0^15,^20]tetratriaconta-2,4,6(34),8,10(33), 11, 13, 15 (20),16,18-decaen-3-yl]acetic acid], 7.70.
In the case of `Cc1nc2cc3nn2c(c1[C@H](OC(C)(C)C)C(=O)O)N1CCC(C)(CC1)OCCCC[C@H](C)Oc1cc(F)ccc1-c1cccc-3c1` [Example 83, (2S)-2-(tert-Butoxy)-2-[(22S)-18-fluoro-4,22,28-trimethyl-21,27-dioxa-1,5,7,8-tetraazahexacyclo[26.2.2.1^6,^9.1^10,^14.0^2,^7.0^15,^20]tetratriaconta-2,4, 6(34), 8, 10(33), 11, 13, 15(20),16,18-decaen-3-yl]acetic acid], the pEC50 was 7.60.
Still for that read-out and setting: the same measure for `Cc1nc2cc3nn2c(c1[C@H](OC(C)(C)C)C(=O)O)N1CCC(C)(CC1)OCCCC[C@H](C)Oc1cccc(F)c1-c1cccc-3c1` [Example 84, (2S)-2-(tert-Butoxy)-2-[(22S)-16-fluoro-4,22,28-trimethyl-21,27-dioxa-1,5,7,8-tetraazahexacyclo[26.2.2.1^6,^9.1^10,^14.0^2,^7.0^15,^20]tetratriaconta-2,4,6(34),8,10(33),11,13,15(20),16,18-decaen-3-yl]acetic acid]: 7.92; for `Cc1nc2cc3nn2c(c1[C@H](OC(C)(C)C)C(=O)O)N1CCC(C)(CC1)OCCCC[C@H](C)Oc1cccc(Cl)c1-c1cccc-3c1` [Example 85, (2S)-2-(tert-Butoxy)-2-[(22S)-16-chloro-4,22,28-trimethyl-21,27-dioxa-1,5,7,8-tetraazahexacyclo[26.2.2.1^6,^9.1^10,^14.0^2,^7.0^15,^20]tetratriaconta-2,4, 6(34), 8, 10(33), 11, 13, 15 (20),16,18-decaen-3-yl]acetic acid]: 7.68; for `Cc1nc2cc3nn2c(c1[C@H](OC(C)(C)C)C(=O)O)N1CCC(C)(CC1)OCCCC[C@H](C)Oc1cc(Cl)ccc1-c1cccc-3c1` [Example 86, (2S)-2-(tert-Butoxy)-2-[(22S)-18-chloro-4,22,28-trimethyl-21,27-dioxa-1,5,7,8-tetraazahexacyclo[26.2.2.1^6,^9. 1^10,^14.0^2,^7.0^15,^20]tetratriaconta-2,4,6(34),8,10(33), 11, 13, 15 (20),16,18-decaen-3-yl]acetic acid]: 7.28.
`Cc1nc2cc3nn2c(c1[C@H](OC(C)(C)C)C(=O)O)N1CCC(C)(CC1)OCCCC[C@H](C)Oc1cc(C#N)ccc1-c1cccc-3c1` [Example 87, (2S)-2-(tert-Butoxy)-2-[(22S)-18-cyano-4,22,28-trimethyl-21,27-dioxa-1,5,7,8-tetraazahexacyclo[26.2.2.1^6,^9.1^10,^14.0^2,^7.0^15,^20]tetratriaconta-2,4,6(34),8,10(33), 11, 13, 15 (20),16,18-decaen-3-yl]acetic acid]: the pEC50 was 8.05.
Same read-out and setting: the same measure for `Cc1cc2c(cc1Cl)-c1cccc(c1)-c1cc3nc(C)c([C@H](OC(C)(C)C)C(=O)O)c(n3n1)N1CCC(C)(CC1)OCCCC[C@H](C)O2` [Example 88, (2S)-2-(tert-Butoxy)-2-[(22S)-17-chloro-4,18,22,28-tetramethyl-21,27-dioxa-1,5,7,8-tetraazahexacyclo[26.2.2.1^6,^9.1^10,^14.0^2,^7.0^15,^20]tetratriaconta-2,4, 6(34), 8, 10(33), 11, 13, 15 (20),16,18-decaen-3-yl]acetic acid]: 7.07.
For the compound `Cc1nc2cc3nn2c(c1[C@H](OC(C)(C)C)C(=O)O)N1CCC(C)(CC1)OCCCC[C@H](C)Oc1ccc(Cl)c(C)c1-c1cccc-3c1` [Example 89, (2S)-2-(tert-Butoxy)-2-[(22S)-17-chloro-4,16,22,28-tetramethyl-21,27-dioxa-1,5,7,8-tetraazahexacyclo[26.2.2.1^6,^9.1^10,^14.0^2,^7.0^15,^20]tetratriaconta-2,4, 6(34), 8, 10(33), 11, 13, 15(20),16,18-decaen-3-yl]acetic acid], the pEC50 was 6.96.
Still for that read-out and setting: to `Cc1cc2c(cc1Cl)-c1cccc(c1)-c1cc3nc(C)c([C@H](OC(C)(C)C)C(=O)O)c(n3n1)N1CCC(C)(CC1)OCCCC[C@@H](C)O2` [Example 90, (2S)-2-(tert-Butoxy)-2-[(22R)-17-chloro-4,18,22,28-tetramethyl-21,27-dioxa-1,5,7,8-tetraazahexacyclo[26.2.2.1^6,^9.1^10,^14.0^2,^7.0^15,^20]tetratriaconta-2,4, 6(34), 8, 10(33), 11, 13, 15 (20),16,18-decaen-3-yl]acetic acid] belongs 6.80; to `Cc1cc2c(cc1F)-c1cccc(c1)-c1cc3nc(C)c([C@H](OC(C)(C)C)C(=O)O)c(n3n1)N1CCC(C)(CC1)OCCCC[C@H](C)O2` [Example 91, (2S)-2-(tert-Butoxy)-2-[(22S)-17-fluoro-4,18,22,28-tetramethyl-21,27-dioxa-1,5,7,8-tetraazahexacyclo[26.2.2.1^6,^9.1^10,^14.0^2,^7.0^15,^20]tetratriaconta-2,4,6(34),8,10(33), 11, 13, 15(20),16,18-decaen-3-yl]acetic acid], 7.33.
For the compound `CCC(C)(C)O[C@H](C(=O)O)c1c(C)nc2cc3nn2c1N1CCC(C)(CC1)OCCCC[C@H](C)Oc1ccc(C)cc1-c1cccc-3c1` [Example 96, (2S)-2-[(2-Methylbutan-2-yl)oxy]-2-[(22S)-4,17,22,28-tetramethyl-21,27-dioxa-1,5,7,8-tetraazahexacyclo[26.2.2.1^6,^9.1^10,^14.0^2,^7.0^15,^20]tetratriaconta-2,4,6(34),8,10(33), 11, 13, 15 (20),16,18-decaen-3-yl]acetic acid], the pEC50 is 7.44.
On the same count and under the same terms, to `Cc1ccc2c(c1)-c1cccc(c1)-c1cc3nc(C)c([C@H](OC4(C)CCC4)C(=O)O)c(n3n1)N1CCC(C)(CC1)OCCCC[C@H](C)O2` [Example 97, (2S)-2-(1-Methylcyclobutoxy)-2-[(22S)-4,17,22,28-tetramethyl-21,27-dioxa-1,5,7,8-tetraazahexacyclo[26.2.2.1^6,^9.1^10,^14.0^2,^7.0^15,^20]tetratriaconta-2,4, 6(34), 8, 10(33), 11, 13, 15 (20),16,18-decaen-3-yl]acetic acid] belongs 7.39.
Turning to `Cc1nc2cc3nn2c(c1[C@H](OC(C)(C)C)C(=O)O)N1CCC(C)(CC1)OCCCC[C@H](C)Oc1cccc(F)c1-c1cc-3ccc1F` [Example 99], the pEC50 was 7.70.
`Cc1ccc2c(c1)O[C@@H](C)CC=CCOC1(C)CCN(CC1)c1c([C@H](OC(C)(C)C)C(=O)O)c(C)nc3cc(nn13)-c1cccc-2c1` [Example 105, (2S)-2-(tert-Butoxy)-2-[(22S)-4,18,22,28-tetramethyl-21,27-dioxa-1,5,7,8-tetraazahexacyclo[26.2.2.1^6,^9.1^10,^14.0^2,^7.0^15,^20]tetratriaconta-2,4,6(34),8,10(33), 11, 13, 15(20),16,18,24-undecaen-3-yl]acetic acid]: the pEC50 is 7.55.
`Cc1nc2cc3nn2c(c1[C@H](OC(C)(C)C)C(=O)O)N1CCC(C)(CC1)COCCCCCc1ccccc1-c1cccc-3c1` [Example 106]: the pEC50 is 7.05.

Values taken from patent publication US8906929B2, “Inhibitors of human immunodeficiency virus replication” (priority 2012, dated 2014).
